Among the data in patent US11046658B2, “Aminopyrazine derivatives as PI3K-γ inhibitors” (Incyte Corporation, priority 2018, dated 2021) are IC50 values, retold here.

Counter-ions that a name gives are not always drawn.

The first test has as its system Phosphorylated Ribosomal Protein S6 (RPS6) in THP-1 cells. Kind of test: THP-1 RPS6 ELISA Assay. The settings on record: Homo sapiens; Table A1; THP-1 cells, 10 nM MCP-1; read-out: PI3Kγ_THP1_RPS6_ELISA IC50. The format is cell-based, Human. Here is the method:
To measure the Phosphorylated Ribosomal Protein S6 (RPS6) in cell lysates, THP-1 cells (Human Acute Monocytic Leukemia) are purchased from ATCC (Manassas, Va.) and maintained in RPMI with 10% FBS (Gibco/Life Technologies, Carlsbad, Calif.). For the assay, THP-1 cells are serum starved overnight in RPMI, then plated in RPMI (2×10^5 cells/well in 90 μL) into 96-well flat-bottom tissue culture treated plates (Corning, Corning, N.Y.), in the presence or absence of a concentration range of test compounds. Covered plates are incubated for 2 hours at 37° C., 5% CO2 then treated with or without 10 nM MCP-1(MYBioSource, San Diego, Calif.) for 15 minutes at 37° C., 5% CO2. Plates are centrifuged at 1600 RPM and supernatants are removed. Cells are lysed in Lysis Buffer (Cell Signaling, Danvers, Mass.) with Protease Inhibitor (Calbiochem/EMD, Germany), PMSF (Sigma, St Louis Mo.), HALTS (Thermo Fisher, Rockford, Ill.) for 30 min on wet ice. Cell lysates are frozen at −80 OC before testing. The lysates are tested in the Human/Mouse/Rat Phospho-RPS6 ELISA (R&D Systems, Inc. Minn, Minn.). The plate is measured using a microplate reader (SpectraMax M5—Molecular Devices, LLC Sunnyvale, Calif.) set to 450 nm with a wavelength correction of 540. IC50 determination is performed by fitting the curve of inhibitor percent inhibition versus the log of the inhibitor concentration using the GraphPad Prism 5.0 software.
For orientation: ELISA stands for enzyme-linked immunosorbent assay.
On to `CC(=O)NCC(O)(c1ccc(C)c(-c2cnc(N)c(C(=O)NC(C)C)n2)c1)C(F)(F)F` (stereo not drawn) [Example 39, 6-(5-(3-Acetamido-1,1,1-trifluoro-2-hydroxypropan-2-yl)-2-methylphenyl)-3-amino-N-isopropylpyrazine-2-carboxamide trifluoroacetate], for which the IC50 is under 0.5 µM.
Turning to `Cc1ccc(C(O)(C(N)=O)C(F)(F)F)cc1-c1cnc(N)c(C(=O)NCC(C)(C)C#N)n1` (stereo not drawn) [Example 15, 3-amino-6-(5-(3-amino-1,1,1-trifluoro-2-hydroxy-3-oxopropan-2-yl)-2-methylphenyl)-N-(2-cyano-2-methylpropyl)pyrazine-2-carboxamide trifluoroacetate], the 50% inhibitory concentration (IC50) was under 0.1 µM.
On to `Cc1ccc(C(O)(C(N)=O)C(F)(F)F)cc1-c1cnc(N)c(C(=O)NC23CCC(C#N)(CC2)CC3)n1` (stereo not drawn) [Example 25, 3-amino-6-(5-(3-amino-1,1,1-trifluoro-2-hydroxy-3-oxopropan-2-yl)-2-methylphenyl)-N-(4-cyanobicyclo[2.2.2]octan-1-yl)pyrazine-2-carboxamide trifluoroacetate], for which the IC50 was under 0.1 µM.
As to `Cc1ccc(C(O)(C(N)=O)C(F)(F)F)cc1-c1cnc(N)c(C(=O)NC2CC3CCC2O3)n1` (single isomer, unassigned) [Example 29, 3-amino-6-(5-(3-amino-1,1,1-trifluoro-2-hydroxy-3-oxopropan-2-yl)-2-methylphenyl)-N-(7-oxabicyclo[2.2.1]heptan-2-yl)pyrazine-2-carboxamide], the half-maximal inhibitory concentration (IC50) was under 0.1 µM.
Same read-out and setting: under `Cc1ccc(C(O)(C(N)=O)C(F)(F)F)cc1-c1cnc(N)c(C(=O)NC(C)(C)CO)n1` (stereo not drawn) [Example 13, 3-Amino-6-(5-(3-amino-1,1,1-trifluoro-2-hydroxy-3-oxopropan-2-yl)-2-methylphenyl)-N-(1-hydroxy-2-methylpropan-2-yl)pyrazine-2-carboxamide] stands under 0.1 µM; under `Cc1ccc(C(O)(C(N)=O)C(F)(F)F)cc1-c1cnc(N)c(C(=O)NCC2(C#N)CC2)n1` (stereo not drawn) [Example 4, 3-amino-6-(5-(3-amino-1,1,1-trifluoro-2-hydroxy-3-oxopropan-2-yl)-2-methylphenyl)-N-((1-cyanocyclopropyl)methyl)pyrazine-2-carboxamide trifluoroacetate], under 0.1 µM.
For the compound `COC[C@H]1CCN1C(=O)c1nc(-c2cc(C(O)(C(N)=O)C(F)(F)F)ccc2C)cnc1N` (stereo partly drawn) [Example 26, 2-(3-(5-amino-6-((R)-2-(methoxymethyl)azetidine-1-carbonyl)pyrazin-2-yl)-4-methylphenyl)-3,3,3-trifluoro-2-hydroxypropanamide], the concentration for half-maximal inhibition (IC50) was under 0.5 µM.
As to `Cc1ccc(C(O)(C(N)=O)C(F)F)cc1-c1cnc(N)c(C(=O)NC2CCOCC2)n1` (stereo not drawn) [Example 36, 3-amino-6-(5-(1-amino-3,3-difluoro-2-hydroxy-1-oxopropan-2-yl)-2-methylphenyl)-N-(tetrahydro-2H-pyran-4-yl)pyrazine-2-carboxamide], the 50% inhibitory concentration (IC50) was under 0.1 µM.
For `Cc1ccc(C(O)(C(N)=O)C(F)(F)F)cc1-c1cnc(N)c(C(=O)NC2CCOCC2)n1` (stereo not drawn) [Example 2, 3-amino-6-(5-(3-amino-1,1,1-trifluoro-2-hydroxy-3-oxopropan-2-yl)-2-methylphenyl)-N-(tetrahydro-2H-pyran-4-yl)pyrazine-2-carboxamide trifluoroacetate], the 50% inhibitory concentration (IC50) is under 0.1 µM.
`CCNC(=O)c1nc(-c2cc(C(O)(C(N)=O)C(F)(F)F)ccc2C)cnc1N` (stereo not drawn) [Example 7, 3-Amino-6-(5-(3-amino-1,1,1-trifluoro-2-hydroxy-3-oxopropan-2-yl)-2-methylphenyl)-N-ethylpyrazine-2-carboxamide trifluoroacetate]: the IC50 was under 0.1 µM.
The same measure, in the same setting: then `Cc1ccc(C(O)(C(N)=O)C(F)F)cc1-c1cnc(N)c(C(=O)NCCC2CCOC2)n1` (stereo not drawn) [Example 37, 3-amino-6-(5-(1-amino-3,3-difluoro-2-hydroxy-1-oxopropan-2-yl)-2-methylphenyl)-N-(2-(tetrahydrofuran-3-yl)ethyl)pyrazine-2-carboxamide], with under 0.1 µM.

Still in this test, the particulars now being: Homo sapiens; Table A2; THP-1 cells, 10 nM MCP-1; read-out: PI3Kγ_THP1_RPS6_ELISA IC50.
Consider `Cc1ccc(C(O)(C(N)=O)C(F)(F)F)cc1-c1cnc(N)c(C#Cc2ccccn2)n1` (stereo not drawn) [Example 55, 2-(3-(5-amino-6-(pyridin-2-ylethynyl)pyrazin-2-yl)-4-methylphenyl)-3,3,3-trifluoro-2-hydroxypropanamide], for which the 50% inhibitory concentration (IC50) was under 0.1 µM.
In the case of `Cc1ccc(C(O)(C(N)=O)C(F)(F)F)cc1-c1cnc(N)c(C#Cc2ccn[nH]2)n1` (stereo not drawn) [Example 52, 2-(3-(6-((1H-pyrazol-5-yl)ethynyl)-5-aminopyrazin-2-yl)-4-methylphenyl)-3,3,3-trifluoro-2-hydroxypropanamide], the IC50 is under 0.5 µM.
In the case of `Cc1ccc(C(O)(C(N)=O)C(F)(F)F)cc1-c1cnc(N)c(C#Cc2ccc(CC#N)cc2)n1` (stereo not drawn) [Example 59, 2-(3-(5-amino-6-((4-(cyanomethyl)phenyl)ethynyl)pyrazin-2-yl)-4-methylphenyl)-3,3,3-trifluoro-2-hydroxypropanamide], the IC50 was under 0.1 µM.
In the case of `COCC#Cc1nc(-c2cc(C(O)(C(N)=O)C(F)(F)F)ccc2C)cnc1N` (stereo not drawn) [Example 47, 2-(3-(5-amino-6-(3-methoxyprop-1-ynyl)pyrazin-2-yl)-4-methylphenyl)-3,3,3-trifluoro-2-hydroxypropanamide trifluoroacetate], the IC50 was under 0.1 µM.
Turning to `Cc1ccc(C(O)(C(N)=O)C(F)(F)F)cc1-c1cnc(N)c(C#Cc2cnccn2)n1` (stereo not drawn) [Example 57, 2-(3-(5-amino-6-(pyrazin-2-ylethynyl)pyrazin-2-yl)-4-methylphenyl)-3,3,3-trifluoro-2-hydroxypropanamide], the half-inhibitory concentration (IC50) is under 0.1 µM.

The test is the same for the next values; noted with them: Homo sapiens; Table A3; THP-1 cells, 10 nM MCP-1; read-out: PI3Kγ_THP1_RPS6_ELISA IC50.
`Cc1ccc(C(O)(C(N)=O)C(F)(F)F)cc1-c1cnc(N)c(C(=O)Nc2ccnn2C)n1` (stereo not drawn) [Example 106, 3-amino-6-(5-(3-amino-1,1,1-trifluoro-2-hydroxy-3-oxopropan-2-yl)-2-methylphenyl)-N-(1-methyl-1H-pyrazol-5-yl)pyrazine-2-carboxamide trifluoroacetate]: the IC50 is under 0.1 µM.
As for `CC(=O)NCC(O)(c1ccc(C)c(-c2cnc(N)c(-c3cnn(CC(F)(F)F)c3)n2)c1)C(F)(F)F` (stereo not drawn) [Example 104, N-(2-(3-(5-amino-6-(1-(2,2,2-trifluoroethyl)-1H-pyrazol-4-yl)pyrazin-2-yl)-4-methylphenyl)-3,3,3-trifluoro-2-hydroxypropyl)acetamide trifluoroacetate], the half-maximal inhibitory concentration (IC50) is under 0.1 µM.
`Cc1ccc(C(O)(C(N)=O)C(F)(F)F)cc1-c1cnc(N)c(-c2ccnc(CO)c2)n1` (stereo not drawn) [Example 85, 2-(3-(5-amino-6-(2-(hydroxymethyl)pyridin-4-yl)pyrazin-2-yl)-4-methylphenyl)-3,3,3-trifluoro-2-hydroxypropanamide bistrifluoroacetate]: the IC50 is under 0.5 µM.

Still in this test, the particulars now being: Homo sapiens; Table A4; THP-1 cells, 10 nM MCP-1; cells given with + symbol; read-out: PI3Kγ_THP1_RPS6_ELISA IC50.
With `CC(=O)N1CCN(c2nc(-c3cc(C(O)(C(N)=O)C(F)(F)F)ccc3C)cnc2N)CC1` (stereo not drawn) [Example 114, 2-(3-(6-(4-acetylpiperazin-1-yl)-5-aminopyrazin-2-yl)-4-methylphenyl)-3,3,3-trifluoro-2-hydroxypropanamide trifluoroacetate], the IC50 is under 0.1 µM.

The test is the same for the next values; noted with them: Table A1; THP-1 cells, 10 nM MCP-1; read-out: PI3Kγ_THP1_RPS6_ELISA IC50.
In the case of `Cc1ccc(C(O)(C(N)=O)C(F)(F)F)cc1-c1cnc(N)c(C(=O)NC2CC3CCC2O3)n1` (single isomer, unassigned) [Example 30, 3-amino-6-(5-(3-amino-1,1,1-trifluoro-2-hydroxy-3-oxopropan-2-yl)-2-methylphenyl)-N-(7-oxabicyclo[2.2.1]heptan-2-yl)pyrazine-2-carboxamide], the IC50 was under 0.1 µM.

As usually defined, the IC50 is the concentration that inhibits the measured activity by half.
